Patent US10780092B2, “Fused pyrazine derivatives useful as soluble guanylate cyclase stimulators” (Merck Sharp & Dohme Corp., priority 2016, dated 2020)

Experiments:
sGC α1/β1 heterodimer = sGC α1/β1 heterodimer (Homo sapiens (Human), UniProt Q02108+Q02153); test: Cell-based sGC functional assay (CASA assay), cGMP by HTRF; conditions: CHO-K1/sGC cells; for Emax: CHO-K1, cGMP production as percentage of maximum of compound A (set to 100%), read-out: % Activation; for EC50: inflection point of cGMP production, 4P fit, read-out: IP; for % Activation: cGMP production as percentage of maximum of compound A (set to 100%)
In short: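 CHO-K1 cells stably expressing human sGC α1/β1, with 0.5 mM IBMX, pre-incubated ±1 μM DETA-NO 30 min at 25° C, then compound 1 hr at 37° C (2.5% DMSO). cGMP by HTRF; activation as % of reference activator maximum, 4P fit giving inflection point and maximum […].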

[1] = biological target: human recombinant sGC enzyme (Homo sapiens (Human), UniProt Q02108+Q02153); test: SEC competition binding assay with [3H] Compound B radioligand; conditions: displacement of 1.6 nM [3H] Compound B, 24 h at 37° C.
In short: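 Recombinant human sGC incubated with 1.6 nM [3H] Compound B and test compounds for 24 h at 37° C. Buffer: 50 mM triethanolamine pH 7.4, 3 mM MgCl2, 0.025% BSA, 2 mM DTT, 300 μM DETA/NO, 400 μM GTP, 1% DMSO. Bound ligand separated by gel filtration and counted by scintillation; non-specific binding with 1 μM Compound B; Ki from one-site fit.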

| Structure (SMILES) | Emax (sGC α1/β1 heterodimer) | EC50 (sGC α1/β1 heterodimer) | Ki [1] | % Activation (sGC α1/β1 heterodimer) |
| --- | --- | --- | --- | --- |
| CC1(c2ccc(Cl)c(O)c2)C(=O)Nc2nc(-c3cn4ccnc4c(CCCC(F)(F)F)n3)nc(N)c21 (stereo not drawn) [Example 55-A, 4-Amino-5-(4-chloro-3-hydroxyphenyl)-5-methyl-2-(8-(4,4,4-trifluorobutyl)imidazo[1,2-a]pyrazin-6-yl)-5,7-dihydro-6H-pyrrolo[2,3-d]pyrimidin-6-one] | 113% | 969 nM | 1.21 nM |  |
| CC1(c2ccc(Cl)c(O)c2)C(=O)Nc2nc(-c3cn4ccnc4c(Cc4ccc(Cl)cc4)n3)nc(N)c21 (stereo not drawn) [Example 44-A, 4-Amino-5-(4-chloro-3-hydroxyphenyl)-2-{8-[(4-chlorophenyl)methyl]imidazo[1,2-a]pyrazin-6-yl}-5-methyl-5,7-dihydro-6H-pyrrolo[2,3-d]pyrimidin-6-one] | 100% | 460 nM | 0.507 nM |  |
| CC1(c2cc(O)c(C(F)(F)F)cn2)C(=O)Nc2nc(-c3cn4ccnc4c(Cc4cccc(F)c4)n3)nc(N)c21 (stereo not drawn) [Example 145-B, 4-amino-2-(8-{3-fluorobenzyl}imidazo-[1,2-a]pyrazin-6-yl)-5-(4-hydroxy-5-(trifluoromethyl)pyridin-2-yl)-5-methyl-5,7-dihydro-6H-pyrrolo-[2,3-d]pyrimidin-6-one] | 91% | 2440 nM | 0.416 nM |  |
| CC1(c2ccc(Cl)c(O)c2)C(=O)Nc2nc(-c3cn4ncnc4c(CCC(F)(F)C(F)(F)F)n3)nc(NCC(O)C(F)(F)F)c21 (single isomer, unassigned) [Example 133-AA, 5-(4-Chloro-3-hydroxy-phenyl)-5-methyl-2-(8-(3,3,4,4,4-pentafluoro-butyl)-[1,2,4]triazolo-[1,5-a]pyrazin-6-yl)-4-[(3,3,3-trifluoro-2-hydroxypropyl)amino]-5,7-dihydro-6H-pyrrolo-[2,3-d]pyrimidin-6-one] | 38% | 1290 nM | 2.34 nM |  |
| CC1(c2cc(O)c(C#N)c(F)c2)C(=O)Nc2nc(-c3cn4ncnc4c(CC4CCCCC4)n3)nc(N)c21 (stereo not drawn) [Example 15-B, 4-(4-Amino-2-(8-(cyclohexylmethyl)-[1,2,4]triazolo[1,5-a]pyrazin-6-yl)-5-methyl-6-oxo-6,7-dihydro-5H-pyrrolo[2,3-d]pyrimidin-5-yl)-2-fluoro-6-hydroxybenzonitrile] | 107% | 771 nM | 0.158 nM |  |
| CC1(c2cc(O)c(C#N)c(Cl)c2)C(=O)Nc2nc(-c3cn4ccnc4c(CC4CCCCC4)n3)nc(N)c21 (stereo not drawn) [Example 142-A, 4-(4-amino-2-{8-(cyclohexylmethyl)-imidazo[1,2-a]pyrazin-6-yl}-5-methyl-6-oxo-6,7-dihydro-5H-pyrrolo-[2,3-d]pyrimidin-5-yl)-2-chloro-6-hydroxy-benzonitrile] | 74% | 3530 nM | 1.14 nM |  |
| CC1(c2ccc(Cl)c(O)c2)C(=O)Nc2nc(-c3cn4ccnc4c(Cc4ccc(F)cc4)n3)nc(NCC(O)C(F)(F)F)c21 (single isomer, unassigned) [Example 132-AB, 5-(4-Chloro-3-hydroxy-phenyl)-2-{8-[(4-fluoro-phenyl)methyl]imidazo-[1,2-a]pyrazin-6-yl}-5-methyl-4-[(3,3,3-trifluoro-2-hydroxypropyl)amino]-5,7-dihydro-6H-pyrrolo-[2,3-d]pyrimidin-6-one] |  | 736 nM | 1.46 nM | 95% |
| CCCCc1nc(-c2nc(N)c3c(n2)NC(=O)C3(C)c2cc(O)ccn2)cn2ncnc12 (stereo not drawn) [Example 118-B, 4-Amino-2-(8-butyl-[1,2,4]triazolo[1,5-a]-pyrazin-6-yl)-5-(4-hydroxypyridin-2-yl)-5-methyl-5,7-dihydro-6H-pyrrolo[2,3-d]-pyrimidin-6-one] | 103% | 457 nM | 7.95 nM |  |

These reach a lower EC50 (sGC α1/β1 heterodimer). Values come first.

| Emax (sGC α1/β1 heterodimer) | EC50 (sGC α1/β1 heterodimer) | Ki [1] | % Activation (sGC α1/β1 heterodimer) | Structure (SMILES) |
| --- | --- | --- | --- | --- |
| 159% | 437 nM | 1.62 nM |  | CC1(c2cc(O)ccn2)C(=O)Nc2nc(-c3cn4ncnc4c(Cc4cccc(F)c4)n3)nc(N)c21 (stereo not drawn) [Example 110-B, 4-Amino-2-{8-[(3-fluorophenyl)methyl]-[1,2,4]triazolo[1,5-a]-pyrazin-6-yl}-5-(4-hydroxypyridin-2-yl)-5-methyl-5,7-dihydro-6H-pyrrolo[2,3-d]pyrimidin-6-one] |
| 109% | 335 nM | 1.72 nM |  | CC(C)CCc1nc(-c2nc(N)c3c(n2)NC(=O)C3(C)c2cccc(O)c2)cn2ccnc12 (stereo not drawn) [Example 59-B, 4-Amino-5-(3-hydroxyphenyl)-2-(8-isopentylimidazo[1,2-a]pyrazin-6-yl)-5-methyl-5,7-dihydro-6H-pyrrolo[2,3-d]pyrimidin-6-one] |
|  | 292 nM | 0.347 nM | 96% | CC1(c2ccc(Cl)c(O)c2)C(=O)Nc2nc(-c3cn4ccnc4c(Cc4cccc(F)c4)n3)nc(NCC(O)C(F)(F)F)c21 (stereo not drawn) [Example 131-AB, 5-(4-Chloro-3-hydroxyphenyl)-2-{8-[(3-fluorophenyl)methyl]imidazo[1,2-a]pyrazin-6-yl}-5-methyl-4-[(3,3,3-trifluoro-2-hydroxypropyl)amino]-5,7-dihydro-6H-pyrrolo[2,3-d]pyrimidin-6-one] |
| 122% | 166 nM | 2.22 nM |  | CC1(c2ccc(F)c(O)c2)C(=O)Nc2nc(-c3cn4ccnc4c(CCC4CCCCC4)n3)nc(N)c21 (stereo not drawn) [Example 86-B, 4-Amino-2-(8-(2-cyclohexylethyl)imidazo[1,2-a]pyrazin-6-yl)-5-(4-fluoro-3-hydroxyphenyl)-5-methyl-5,7-dihydro-6H-pyrrolo[2,3-d]pyrimidin-6-one] |
| 85% | 144 nM | 0.864 nM |  | CCCCc1nc(-c2nc(N)c3c(n2)NC(=O)C3(C)c2ccc(Cl)c(O)c2)cn2ccnc12 (stereo not drawn) [Example 52-A, 4-Amino-2-(8-butylimidazo[1,2-a]pyrazin-6-yl)-5-(4-chloro-3-hydroxyphenyl)-5-methyl-5,7-dihydro-6H-pyrrolo[2,3-d]pyrimidin-6-one] |
| 113% | 94 nM | 0.094 nM |  | CC1(c2cc(O)c(Cl)c(F)c2)C(=O)Nc2nc(-c3cn4ccnc4c(Cc4cc(F)ccc4F)n3)nc(N)c21 (stereo not drawn) [Example 6-B, 4-Amino-5-(4-chloro-3-fluoro-5-hydroxyphenyl)-2-{8-[(2,5-difluorophenyl)methyl]imidazo[1,2-a]pyrazin-6-yl}-5-methyl-5,7-dihydro-6H-pyrrolo[2,3-d]pyrimidin-6-one] |
| 141% | 75 nM | 0.199 nM |  | CC1(c2ccc(Cl)c(O)c2)C(=O)Nc2nc(-c3cn4ccnc4c(Cc4ccc(F)cc4F)n3)nc(N)c21 (stereo not drawn) [Example 91-A, 4-Amino-5-(4-chloro-3-hydroxyphenyl)-2-{8-[(2,4-difluorophenyl)methyl]imidazo[1,2-a]pyrazin-6-yl}-5-methyl-5,7-dihydro-6H-pyrrolo[2,3-d]pyrimidin-6-one] |
| 81% | 32 nM | 3.96 nM |  | CCCCc1nc(-c2nc(N)c3c(n2)NC(=O)C3(C)c2ccc(O)cc2)cn2ncnc12 (stereo not drawn) [Example 70-B, 4-Amino-2-(8-butyl-[1,2,4]triazolo[1,5-a]pyrazin-6-yl)-5-(4-hydroxyphenyl)-5-methyl-5,7-dihydro-6H-pyrrolo[2,3-d]pyrimidin-6-one] |
